Measured values taken from US9642854B2, “Flavanoid compounds and process for preparation thereof” (Council of Scientific & Industrial Research, priority 2009, dated 2017).
Values after ≈ are worked out from the molar mass of the structure shown. Where two headings read alike, the source gives them in different places.

Legend:
H. pylori [1] = test: Anti H. pylori spectrum (MIC) by agar dilution method; type: cell-based, Helicobacter pylori; settings: for MIC / MIC50: Helicobacter pylori; for MIC50: MIC against 50% of the strains of the panel, read-out: MIC50
Description: MIC was determined using agar dilution assay following the CLSI® guidelines. Six clinical isolates and four standard strains were used for this study. Five microlitre of freshly grown 3-day old culture (˜1×10^8 CFU/mL) was streaked in plates containing 2-fold serial dilution of the compounds ranging […], and incubated under microaerophilic condition at 37° C. After 72 h, the plates were inspected visually for absence of growth to assess the MIC values. The experiment was performed in duplicates. MIC50 is defined as the dose (μg/ml) required for killing 50% of the strains.
Plates contained two-fold serial dilutions of the compounds ranging from […]. Five microlitres of 3-day old freshly grown H. pylori culture (^˜10^8 CFU/mL) was inoculated onto drug-containing BHI agar plates supplemented with 7% FCS, 0.5% IsoVitalex and 0.0025% DENT®, which were then incubated for 3 days under microaerophilic condition at 37° C.

H. pylori [2] = test: Anti H. pylori screening by disc diffusion susceptibility assay; type: cell-based, Helicobacter pylori; settings: for Inhibition zone diameter (score): 100 and 200 mg/disc (so in the source); for Inhibition zone diameter (score) / zone of inhibition at 100 µg/disc: 72 h; for zone of inhibition at 100 µg/disc: Helicobacter pylori, 100 and 200 μg/disc, majority of the strains, read-out: Activity class by inhibition zone diameter
Description: The discs were impregnated with […] of each of the compounds, dissolved either in ethanol or DMSO, and the zone of inhibition was measured after 72 h of growth under microaerophilic conditions at 37° C. Inhibition zone diameter ranging 10-20 mm was given a score of ^+, 20-30 mm as ^++ and that of >30 mm as ^+++, as obtained employing dose range of […]/disc. The detailed structural information of the molecules is provided under ‘Description of the Compounds’.
Methods and protocols for the determination of inhibition zone diameter are as stated under Experiment 1, and that of MIC values by microbroth dilution assay as in Experiment 3. ‘Nil’ means zone of inhibition below 10 mm.
The anti H. pylori activity of all 16 flavonoid molecules, 2 naturally isolated and 14 synthetic derivatives, was screened by disc diffusion sensitivity assay employing 2 clinical strains HP001 and HP002, and three standard strains ATCC® 700392, 43504 and 49503. A 0.5 mL inoculum (10^8 CFU/mL) for each bacterial strain tested was flooded on freshly prepared Brain Heart Infusion (BHI) agar plates supplemented with 7% FCS, 0.5% IsoVitalex and 0.0025% DENT® and the discs (5 mm diameter) containing different compounds or antibiotics (dissolved either in ethanol or DMSO) were placed on the agar surface. After incubation for 3 days in a microaerophilic atmosphere at 37° C., the diameter of the zone of inhibition was measured (Glupczynsky, 1996; McNulty et al., 2002).

[3] = 72 h, panel of 6 clinical isolates and 4 standard strains, read-out: MIC Range
[4] = clinical strain HP001, read-out: MIC
[5] = clinical strain HP002, read-out: MIC
[6] = clinical strain HP003, read-out: MIC
[7] = clinical strain HP004, read-out: MIC
[8] = clinical strain HP005, read-out: MIC
[9] = clinical strain HP006, read-out: MIC
[10] = standard strain 43504, read-out: MIC
[11] = standard strain 43629, read-out: MIC
[12] = standard strain 49503, read-out: MIC
[13] = standard strain 700392, read-out: MIC
[14] = panel of 6 clinical isolates and 4 standard strains

MIC (H. pylori [1]; [3]) [µg/mL] | MIC50 (H. pylori [1]) [µg/mL] | MIC (H. pylori [1]; [4]) [µg/mL] | MIC (H. pylori [1]; [5]) [µg/mL] | MIC (H. pylori [1]; [6]) [µg/mL] | MIC (H. pylori [1]; [7]) [µg/mL] | MIC (H. pylori [1]; [8]) [µg/mL] | MIC (H. pylori [1]; [9]) [µg/mL] | MIC (H. pylori [1]; [10]) [µg/mL] | MIC (H. pylori [1]; [11]) [µg/mL] | MIC (H. pylori [1]; [12]) [µg/mL] | MIC (H. pylori [1]; [13]) [µg/mL] | Structure (SMILES) | MIC50 (H. pylori [1]; 72 h) [µg/mL] | Inhibition zone diameter (score) (H. pylori [2]; ATCC standard strain 43504) | Inhibition zone diameter (score) (H. pylori [2]; ATCC standard strain 49503) | Inhibition zone diameter (score) (H. pylori [2]; ATCC standard strain 700392) | Inhibition zone diameter (score) (H. pylori [2]; clinical strain HP001) | Inhibition zone diameter (score) (H. pylori [2]; clinical strain HP002) | zone of inhibition at 100 µg/disc (H. pylori [2]) [mm] | further results
6.25 to 25 (≈ 14.8 to 59 µM) | 25 (≈ 59 µM) | 25 (≈ 59 µM) | 25 (≈ 59 µM) | < 12.5 | < 12.5 | < 12.5 | < 12.5 | 25 (≈ 59 µM) | 25 (≈ 59 µM) | 25 (≈ 59 µM) | 25 (≈ 59 µM) | O=c1cc(-c2ccccc2)oc2cc(OCCCCCCN3CCOCC3)cc(O)c12 [CHM-1, 5-Hydroxy-7-(6-morpholin-4-yl-hexyloxy)-2-phenyl-chromen-4-one] | ~25 (≈ 59 µM) | Nil (‘Nil’ means zone of inhibition below 10 mm) | + (Inhibition zone diameter ranging 10-20 mm was given a score of ^+) | + (Inhibition zone diameter ranging 10-20 mm was given a score of ^+) | + (Inhibition zone diameter ranging 10-20 mm was given a score of ^+) | + (Inhibition zone diameter ranging 10-20 mm was given a score of ^+) | – | –
6.25 to 25 (≈ 18.4 to 73.7 µM) | 25 (≈ 73.7 µM) | 25 (≈ 73.7 µM) | 25 (≈ 73.7 µM) | 12.5 (≈ 36.8 µM) | 12.5 (≈ 36.8 µM) | 25 (≈ 73.7 µM) | 25 (≈ 73.7 µM) | 50 (≈ 147 µM) | 12.5 (≈ 36.8 µM) | 25 (≈ 73.7 µM) | 50 (≈ 147 µM) | CN(C)CCCOc1cc(O)c2c(=O)cc(-c3ccccc3)oc2c1 [CHN-2, 7-(3-Dimethylamino-propoxy)-5-hydroxy-2-phenyl-chromen-4-one] | ~25 (≈ 73.7 µM) | ++ (20-30 mm as ^++) | ++ (20-30 mm as ^++) | + (Inhibition zone diameter ranging 10-20 mm was given a score of ^+) | ++ (20-30 mm as ^++) | ++ (20-30 mm as ^++) | 20 to 30 | MIC Range (H. pylori [1]; [14]): 12.5 to 50 µg/mL
6.25 to 100 (≈ 16.5 to 264 µM) | 12.5 (≈ 32.9 µM) | 25 (≈ 65.9 µM) | 25 (≈ 65.9 µM) | < 12.5 | < 12.5 | < 12.5 | < 12.5 | 12.5 (≈ 32.9 µM) | 100 (≈ 264 µM) | 25 (≈ 65.9 µM) | 25 (≈ 65.9 µM) | O=c1cc(-c2ccccc2)oc2cc(OCCCN3CCCCC3)cc(O)c12 [CPP-2, 5-Hydroxy-2-phenyl-7-(3-piperidin-1-yl-propoxy)-chromen-4-one] | ~12.5 (≈ 32.9 µM) | + (Inhibition zone diameter ranging 10-20 mm was given a score of ^+) | + (Inhibition zone diameter ranging 10-20 mm was given a score of ^+) | + (Inhibition zone diameter ranging 10-20 mm was given a score of ^+) | + (Inhibition zone diameter ranging 10-20 mm was given a score of ^+) | + (Inhibition zone diameter ranging 10-20 mm was given a score of ^+) | – | –
– | 50 (≈ 292 µM) | – | > 100 | 100 (≈ 584 µM) | 100 (≈ 584 µM) | 25 (≈ 146 µM) | 25 (≈ 146 µM) | 50 (≈ 292 µM) | 1.56 (≈ 9.11 µM) | 1.56 (≈ 9.11 µM) | 1.56 (≈ 9.11 µM) | Cc1ncc([N+](=O)[O-])n1CCO [Metronidazole, reference compound] | – | – | – | – | – | – | – | –

More lines, now with the values behind:

Structure (SMILES) | MIC (H. pylori [1]; [3]) [µg/mL] | MIC50 (H. pylori [1]) [µg/mL] | MIC (H. pylori [1]; [4]) [µg/mL] | MIC (H. pylori [1]; [5]) [µg/mL] | MIC (H. pylori [1]; [6]) [µg/mL] | MIC (H. pylori [1]; [7]) [µg/mL] | MIC (H. pylori [1]; [8]) [µg/mL] | MIC (H. pylori [1]; [9]) [µg/mL] | MIC (H. pylori [1]; [10]) [µg/mL] | MIC (H. pylori [1]; [11]) [µg/mL] | MIC (H. pylori [1]; [12]) [µg/mL] | MIC (H. pylori [1]; [13]) [µg/mL] | MIC50 (H. pylori [1]; 72 h) [µg/mL] | Inhibition zone diameter (score) (H. pylori [2]; ATCC standard strain 43504) | Inhibition zone diameter (score) (H. pylori [2]; ATCC standard strain 49503) | Inhibition zone diameter (score) (H. pylori [2]; ATCC standard strain 700392) | Inhibition zone diameter (score) (H. pylori [2]; clinical strain HP001) | Inhibition zone diameter (score) (H. pylori [2]; clinical strain HP002) | zone of inhibition at 100 µg/disc (H. pylori [2]) [mm] | further results
CC1(C)S[C@@H]2[C@H](NC(=O)[C@H](N)c3ccc(O)cc3)C(=O)N2[C@H]1C(=O)O [Amoxicillin, reference compound] | 0.016 to 0.0625 (≈ 0.0438 to 0.171 µM) | 0.032 (≈ 0.0876 µM) | 0.032 (≈ 0.0876 µM) | 0.032 (≈ 0.0876 µM) | 0.016 (≈ 0.0438 µM) | 0.016 (≈ 0.0438 µM) | 0.016 (≈ 0.0438 µM) | 0.016 (≈ 0.0438 µM) | 0.0625 (≈ 0.171 µM) | 0.032 (≈ 0.0876 µM) | 0.032 (≈ 0.0876 µM) | 0.0625 (≈ 0.171 µM) | – | – | – | – | – | – | – | inhibition zone diameter (H. pylori [2]; clinical strains, 0.16 mg/disc): 10-16 mm; inhibition zone diameter (H. pylori [2]; standard strains, 0.5-1.0 mg/disc): 13-15 mm
O=c1cc(-c2ccccc2)oc2cc(OCCCCN3CCOCC3)cc(O)c12 [CHM-3, 5-Hydroxy-7-(4-morpholin-4-yl-butoxy)-2-phenyl-chromen-4-one] | 50 to 100 (≈ 126 to 253 µM) | 50 (≈ 126 µM) | 50 (≈ 126 µM) | 50 (≈ 126 µM) | 100 (≈ 253 µM) | 100 (≈ 253 µM) | 100 (≈ 253 µM) | 100 (≈ 253 µM) | 50 (≈ 126 µM) | 100 (≈ 253 µM) | 50 (≈ 126 µM) | 50 (≈ 126 µM) | 50 (≈ 126 µM) | + (Inhibition zone diameter ranging 10-20 mm was given a score of ^+) | ++ (20-30 mm as ^++) | + (Inhibition zone diameter ranging 10-20 mm was given a score of ^+) | ++ (20-30 mm as ^++) | ++ (20-30 mm as ^++) | 20 to 30 | MIC Range (H. pylori [1]; [14]): 50 to 100 µg/mL
CN(C)CCCCOc1cc(O)c2c(=O)cc(-c3ccccc3)oc2c1 [CHN-3, 7-(4-Dimethylamino-butoxy)-5-hydroxy-2-phenyl-chromen-4-one] | 6.25 to 25 (≈ 17.7 to 70.7 µM) | 25 (≈ 70.7 µM) | 25 (≈ 70.7 µM) | 25 (≈ 70.7 µM) | < 12.5 | < 12.5 | < 12.5 | < 12.5 | 25 (≈ 70.7 µM) | 25 (≈ 70.7 µM) | 25 (≈ 70.7 µM) | 25 (≈ 70.7 µM) | ~25 (≈ 70.7 µM) | + (Inhibition zone diameter ranging 10-20 mm was given a score of ^+) | ++ (20-30 mm as ^++) | + (Inhibition zone diameter ranging 10-20 mm was given a score of ^+) | ++ (20-30 mm as ^++) | ++ (20-30 mm as ^++) | 20 to 30 | –
CN1CCN(CCCCOc2cc(O)c3c(=O)cc(-c4ccccc4)oc3c2)CC1 [NMC-3, 5-Hydroxy-7-[4-(4-methyl-piperazin-1-yl)-butoxy]-2-phenyl-chromen-4-one] | 6.25 to 25 (≈ 15.3 to 61.2 µM) | 25 (≈ 61.2 µM) | 25 (≈ 61.2 µM) | 25 (≈ 61.2 µM) | < 12.5 | < 12.5 | < 12.5 | < 12.5 | 25 (≈ 61.2 µM) | 25 (≈ 61.2 µM) | 25 (≈ 61.2 µM) | 25 (≈ 61.2 µM) | ~25 (≈ 61.2 µM) | + (Inhibition zone diameter ranging 10-20 mm was given a score of ^+) | + (Inhibition zone diameter ranging 10-20 mm was given a score of ^+) | + (Inhibition zone diameter ranging 10-20 mm was given a score of ^+) | + (Inhibition zone diameter ranging 10-20 mm was given a score of ^+) | ++ (20-30 mm as ^++) | – | –
